The target of one assay is T1, VIM-2 (Escherichia coli, UniProt Q5U7L7).
T1 construct: made in house
As to the kind of experiment: Inhibition of IPM hydrolysis by purified VIM-2, Ki by Lineweaver-Burk plots. The assay is classed as biochemical. The conditions noted are these: IPM as substrate, competitive model, mean of three replicates; read-out: Inhibition constant Ki VIM-2. The method, then: MBL (10 nM) was mixed with the inhibitors and incubated for 5 min at 30°C. IPM was added to reach a concentration of 150 μM, and the velocity of IPM hydrolysis was monitored at 298 nm. The assay was performed at 30°C using 10 mM HEPES (pH 7.5) buffer containing 200 mM NaCl and 50 μg/ml bovine serum albumin (BSA) for IMP-1, NDM-1, VIM-2, and SMB-1. For SFH-1 and L1, another 10 mM HEPES (pH 7.5) buffer containing 200 mM NaCl, 20 μM ZnSO4, and 50 μg/ml BSA was used.
Initial velocities (vo) were measured after varying the concentrations of IPM and inhibitors, and inverse velocities (1/vo) were plotted against inverse IPM concentrations […]. Lineweaver-Burk plots were constructed to obtain the inhibition constant (Ki) with the competitive inhibition model using the SigmaPlot 13 suite (Hulinks).

Another assay concerns E. coli DH5α/pBC-IMP-1. Put plainly: Susceptibility and checkerboard testing, IMP-1-producing E. coli. The assay is classed as cell-based, Escherichia coli. The following applies: for MIC: Escherichia coli. Here is the method:
MICs were determined via the microdilution method according to the CLSI guidelines ([38]). In brief, 5 × 10^4 bacterial cells were inoculated in 100 μl of cation-adjusted Mueller-Hinton broth (Becton, Dickinson and Company, Franklin Lakes, NJ) containing the β-lactams and appropriately diluted inhibitors. The final concentration of DMSO was maintained at 2% in the assays. The tested plates were then incubated at 35°C for 16 to 20 h. The MIC value was determined as the lowest concentration of tested β-lactams where no bacterial growth was visibly observed. The optical density at 600 nm (OD600) value was measured using a plate reader for drawing the heat maps. The FIC index value was calculated using the following equation: FIC index=MIC of β-lactam with inhibitor/MIC of β-lactam alone+MIC of inhibitor with β-lactam/MIC of inhibitor alone
Unless noted otherwise, the FIC index was defined as the lowest value among all obtained values. The synergistic effect was defined as the effect observed when the FIC index value was ≤0.5.

Each structure is given as a SMILES string. Where two headings read alike, the source gives them in different places.

This note sets out measurements from publication PMC7078479, “Sulfamoyl Heteroarylcarboxylic Acids as Promising Metallo-β-Lactamase Inhibitors for Controlling Bacterial Carbapenem Resistance” (mBio, 2020).

For orientation: Ki means the dissociation constant of the complex between target and ligand, obtained from inhibition or displacement. For `Cc1oc(C)c(S(N)(=O)=O)c1C(=O)O` [SFC, 2,5-dimethyl-4-sulfamoylfuran-3-carboxylic acid], the Ki on VIM-2 came to 2.81 µM. The “MIC meropenem + 2 μg/mL compound” value with E. coli DH5α/pBC-IMP-1 (E. coli DH5α/pBC-IMP-1) worked out at 0.063 µg/mL. The “Reduction in MPM MIC” value in the assay with E. coli DH5α/pBC-IMP-1 (E. coli DH5α/pBC-IMP-1, 2 μg/ml compound) is 16 fold; with E. coli DH5α/pBC-IMP-1 (E. coli DH5α/pBC-IMP-1, 10 μg/ml compound), 16 fold. In addition, the MIC in the assay on E. coli DH5α/pBC-IMP-1 (read-out: MIC of MPM + inhibitor (8 μg/ml)) and with E. coli DH5α/pBC-IMP-1 (read-out: MIC of MPM + inhibitor (32 μg/ml)) was 0.031 µg/mL each time. For the same molecule, the FIC index with E. coli DH5α/pBC-IMP-1 (checkerboard with MPM, E. coli DH5α/pBC-IMP-1, lowest value) was determined as 0.06.
